Here are results for 22 molecules from ChEMBL document CHEMBL3259778, “Design and synthesis of novel indole-chalcone fibrates as lipid lowering agents” (2014).

Experiment [1] deals with Rattus norvegicus. Put plainly: Antidyslipidemic activity in triton-induced hyperlipidemic Charles Foster rat assessed as reduction in total cholesterol in plasma at 100 mg/kg, po relative to control. In kind it is functional. On the set-up: scale not given: the % may be the effect or the level left.
For experiment [2], the system named is Rattus norvegicus. Put plainly: Antidyslipidemic activity in triton-induced hyperlipidemic Charles Foster rat assessed as reduction in phospholipid in plasma at 100 mg/kg, po relative to control. In kind it is functional. Set-up: scale not given: the % may be the effect or the level left.
The test system of experiment [3] is Rattus norvegicus. Description: Antidyslipidemic activity in triton-induced hyperlipidemic Charles Foster rat assessed as reduction in triglyceride in plasma at 100 mg/kg, po relative to control. In kind it is functional. On the set-up: scale not given: the % may be the effect or the level left.
For experiment [4], the system named is Rattus norvegicus. Put plainly: Antidyslipidemic activity in triton-induced hyperlipidemic Charles Foster rat assessed as plasma post heparin lipolytic activity at 100 mg/kg, po relative to control. In kind it is functional.
The nature of experiment [5]: Antioxidant activity assessed as superoxide ion scavenging activity measured as formazone formation at 200 ug/ml after 90 mins by spectrophotometry relative to control. The class given is functional.
Experiment [6] can be described thus: Antioxidant activity assessed as hydroxyl ion scavenging activity measured as MDA formation at 200 ug/ml after 90 mins by spectrophotometry relative to control. The class given is functional.
Experiment [7] in a line: Antioxidant activity assessed as suppression of microsomal lipid peroxidation measured as MDA formation at 200 ug/ml after 90 mins by spectrophotometry relative to control. The class given is functional.
Experiment [8] relates to Rattus norvegicus. Put plainly: Antidyslipidemic activity in triton-induced hyperlipidemic Charles Foster rat assessed as reduction in total cholesterol in plasma at 50 to 150 mg/kg, po relative to control. The class given is functional. On the set-up: scale not given: the % may be the effect or the level left. As to conditions: dose mg/kg 50-150.
Experiment [9] relates to Rattus norvegicus. Description: Antidyslipidemic activity in triton-induced hyperlipidemic Charles Foster rat assessed as reduction in phospholipid in plasma at 50 to 150 mg/kg, po relative to control. In kind it is functional. On the set-up: scale not given: the % may be the effect or the level left. As to conditions: dose mg/kg 50-150.
Experiment [10] has as its system Rattus norvegicus. Description: Antidyslipidemic activity in triton-induced hyperlipidemic Charles Foster rat assessed as reduction in triglyceride in plasma at 50 to 150 mg/kg, po relative to control. On the set-up: scale not given: the % may be the effect or the level left. In kind it is functional. As to conditions: dose mg/kg 50-150.
Experiment [11] relates to Rattus norvegicus. Put plainly: Antidyslipidemic activity in triton-induced hyperlipidemic po dosed Charles Foster rat assessed as reduction in VLDL in plasma relative to control. The class given is functional, organism-based.
Experiment [12] relates to Rattus norvegicus. Put plainly: Antidyslipidemic activity in triton-induced hyperlipidemic po dosed Charles Foster rat assessed as reduction in LDL in plasma relative to control. In kind it is functional, organism-based.
Experiment [13] concerns Rattus norvegicus. Put plainly: Antidyslipidemic activity in triton-induced hyperlipidemic po dosed Charles Foster rat assessed as increase in HDL in plasma relative to control. The class given is functional, organism-based.
In experiment [14] the test system is Rattus norvegicus. Description: Antidyslipidemic activity in triton-induced hyperlipidemic Charles Foster rat assessed as increase in total lipolytic activity of lipoprotein lipase at 100 mg/kg, po relative to control. In kind it is functional, organism-based. On the set-up: dose 100 mg/kg.

Each structure is given as a SMILES string. Calls of active or inactive are those of the source. No cut-off for these calls is given here.

For the molecule `CCOC(=O)C(C)(C)Oc1ccc(C(=O)/C=C/c2c[nH]c3ccccc23)cc1`, the Activity amounted to 20% in the experiment with Rattus norvegicus [1]; 22% with Rattus norvegicus [2]; 22% with Rattus norvegicus [3]; 14% in the experiment with Rattus norvegicus [4]; 33% in [5]; 38% in experiment [6]. Also, the Activity in experiment [7] came to 36%.

Turning to `CCOC(=O)C(C)(C)Oc1ccc(C(=O)/C=C/c2c(C)[nH]c3ccccc23)cc1`, the Activity in the experiment with Rattus norvegicus [1] is 32%; with Rattus norvegicus [2], 33%; in the experiment with Rattus norvegicus [3], 30%; in the experiment on Rattus norvegicus [4] it was 20%; with Rattus norvegicus [8], 24%; in the experiment with Rattus norvegicus [9], 26%. Moreover, the Activity with Rattus norvegicus [10] worked out at 25%; in [5], 36%; in [6] it was 41%; in experiment [7], 40%. Moreover, the result with Rattus norvegicus [11], with Rattus norvegicus [12], in the experiment on Rattus norvegicus [13] and in the experiment with Rattus norvegicus [14] was Active.

As to `CCOC(=O)CCCOc1ccc(C(=O)/C=C/c2c[nH]c3ccccc23)cc1`, the Activity in the experiment on Rattus norvegicus [1] came to 31%; in the experiment with Rattus norvegicus [2] it was 32%; with Rattus norvegicus [3] it was 30%; in the experiment on Rattus norvegicus [4], 19%; with Rattus norvegicus [8] it was 22%; in the experiment with Rattus norvegicus [9], 20%. Further, the Activity amounted to 20% in the experiment with Rattus norvegicus [10], 31% in experiment [5], 37% in experiment [6] and 35% in experiment [7]. The result with Rattus norvegicus [11], in the experiment with Rattus norvegicus [12], in the experiment on Rattus norvegicus [13] and with Rattus norvegicus [14] was Active.

Consider `CCOC(=O)C(C)Oc1ccc(C(=O)/C=C/c2c[nH]c3ccc(OC)cc23)cc1` (stereo unspecified), for which the Activity with Rattus norvegicus [1] turned out to be 11%; in the experiment with Rattus norvegicus [2], 13%; in the experiment with Rattus norvegicus [3], 10%; in the experiment with Rattus norvegicus [4] it was 6%.

In the case of `CCOC(=O)C(CC)Oc1ccc(C(=O)/C=C/c2c(C)[nH]c3ccccc23)cc1` (stereo unspecified), the Activity in the experiment with Rattus norvegicus [1] worked out at 20%; in the experiment with Rattus norvegicus [2], 22%; with Rattus norvegicus [3] it was 22%; in the experiment on Rattus norvegicus [4] it was 14%.

As to `Cc1c(C)c2c(c(C)c1O)CC[C@@](C)(CCC[C@H](C)CCC[C@H](C)CCCC(C)C)O2`, the Activity in experiment [7] was found to be 46%.

As to `COC(=O)C(C)Oc1ccc(C(=O)/C=C/c2c[nH]c3ccccc23)cc1` (stereo unspecified), the Activity with Rattus norvegicus [1] was 13%; with Rattus norvegicus [2] it was 14%; in the experiment with Rattus norvegicus [3], 12%; in the experiment on Rattus norvegicus [4], 6%.

Take `COC(=O)C(C)(C)Oc1ccc(C(=O)/C=C/c2c(C)[nH]c3ccccc23)cc1`: the Activity was found to be 10% in the experiment with Rattus norvegicus [1], 12% in the experiment on Rattus norvegicus [2], 10% with Rattus norvegicus [3] and 6% with Rattus norvegicus [4].

Regarding `CCOC(=O)CCCOc1ccc(C(=O)/C=C/c2c(C)[nH]c3ccccc23)cc1`, the Activity in the experiment with Rattus norvegicus [1] is listed as 13%; in the experiment with Rattus norvegicus [2] it was 16%; with Rattus norvegicus [3], 14%; in the experiment with Rattus norvegicus [4], 7%.

Turning to `CCC(Oc1ccc(C(=O)/C=C/c2c[nH]c3ccccc23)cc1)C(=O)OC` (stereo unspecified), the Activity with Rattus norvegicus [1] was found to be 8%; with Rattus norvegicus [2], 8%; in the experiment on Rattus norvegicus [3] it was 9%; in the experiment on Rattus norvegicus [4] it was 3%.

For the molecule `COC(=O)C(C)Oc1ccc(C(=O)/C=C/c2c[nH]c3ccc(Cl)cc23)cc1` (stereo unspecified), the Activity in the experiment with Rattus norvegicus [1] is 12%; with Rattus norvegicus [2], 14%; with Rattus norvegicus [3] it was 17%; in the experiment with Rattus norvegicus [4], 3%.

Consider `COC(=O)CCCOc1ccc(C(=O)/C=C/c2c[nH]c3ccc(Cl)cc23)cc1`, for which the Activity was determined as 10% in the experiment on Rattus norvegicus [1], 11% with Rattus norvegicus [2], 10% with Rattus norvegicus [3] and 4% in the experiment with Rattus norvegicus [4].

As to `CCOC(=O)C(C)Oc1ccc(C(=O)/C=C/c2c[nH]c3ccccc23)cc1` (stereo unspecified), the Activity came out at 15% in the experiment on Rattus norvegicus [1], 13% with Rattus norvegicus [2], 12% in the experiment on Rattus norvegicus [3] and 8% with Rattus norvegicus [4].

As for `CCOC(=O)C(CC)Oc1ccc(C(=O)/C=C/c2c[nH]c3ccc(Cl)cc23)cc1` (stereo unspecified), the Activity in the experiment with Rattus norvegicus [1] is 18%; with Rattus norvegicus [2] it was 16%; in the experiment on Rattus norvegicus [3], 16%; in the experiment with Rattus norvegicus [4], 13%.

`COC(=O)CCCOc1ccc(C(=O)/C=C/c2c[nH]c3ccccc23)cc1`: the Activity in the experiment with Rattus norvegicus [1] was 20%; with Rattus norvegicus [2], 22%; in the experiment on Rattus norvegicus [3], 22%; in the experiment on Rattus norvegicus [4], 14%; in experiment [5] it was 26%; in experiment [6], 32%. The Activity in experiment [7] was found to be 30%.

For the molecule `CCC(Oc1ccc(C(=O)/C=C/c2c(C)[nH]c3ccccc23)cc1)C(=O)OC` (stereo unspecified), the Activity in the experiment with Rattus norvegicus [1] turned out to be 26%; in the experiment on Rattus norvegicus [2], 24%; in the experiment on Rattus norvegicus [3], 27%; in the experiment with Rattus norvegicus [4], 16%; in the experiment with Rattus norvegicus [8], 14%; in the experiment with Rattus norvegicus [9], 17%. For the same molecule, the Activity in the experiment with Rattus norvegicus [10] is 15%; in experiment [5] it was 27%; in [6] it was 29%; in experiment [7], 28%. Moreover, the outcome in the experiment with Rattus norvegicus [11], in the experiment on Rattus norvegicus [12], with Rattus norvegicus [13] and with Rattus norvegicus [14] was Active.

In the case of `Oc1ncnc2[nH]ncc12`, the Activity in experiment [5] worked out at 49%.

In the case of `OC[C@@H](O)[C@@H](O)[C@H](O)[C@H](O)CO`, in [6], the Activity amounted to 53%.

Turning to `CCOC(=O)C(C)Oc1ccc(C(=O)/C=C/c2c[nH]c3ccc(Cl)cc23)cc1` (stereo unspecified), the Activity in the experiment on Rattus norvegicus [1] is on record as 11%; with Rattus norvegicus [2], 15%; in the experiment on Rattus norvegicus [3], 13%; in the experiment on Rattus norvegicus [4] it was 7%.

Consider `CC(C)OC(=O)C(C)(C)Oc1ccc(C(=O)c2ccc(Cl)cc2)cc1` [FENOFIBRATE], for which the Activity is 32% with Rattus norvegicus [1], 30% with Rattus norvegicus [2], 33% with Rattus norvegicus [3] and 19% with Rattus norvegicus [4]. The outcome in the experiment with Rattus norvegicus [14] was Active.

With `COC(=O)CCCOc1ccc(C(=O)/C=C/c2c(C)[nH]c3ccccc23)cc1`, the Activity is 15% in the experiment with Rattus norvegicus [1], 18% with Rattus norvegicus [2], 16% in the experiment on Rattus norvegicus [3] and 9% in the experiment on Rattus norvegicus [4].

On to `COC(=O)CCCOc1ccc(C(=O)/C=C/c2c[nH]c3ccc(OC)cc23)cc1`, for which the Activity in the experiment with Rattus norvegicus [1] came to 13%; in the experiment on Rattus norvegicus [2], 11%; with Rattus norvegicus [3], 14%; in the experiment with Rattus norvegicus [4], 7%.
